Source: paper PMC7253423, “Quassinoid analogs with enhanced efficacy for treatment of hematologic malignancies target the PI3Kγ isoform” (Communications Biology, 2020)
“And” between values parts separate entries of the source, which are not always exact repeats. Identical values can stand only once.

Tests used:
[1] = Body weight of xenograft mice; assay type: in vivo, NOD/SCID mice; settings: individual mice, Fig S3i, in g (unit assumed)
Protocol: (§1) Six-week-old male NOD.CB17-Prkdc^scid/J (NOD/SCID) mice (Jackson Labs, Bar Harbor, ME, USA) were used as the human-in-mouse xeno-transplantation model. MOLM14 cells (1 × 10^7 cells) were injected into the subcutaneous space on the left flank of the mice. […] Body weight and tumor size were monitored before every injection. After treatment for 2 weeks, the mice were euthanized by CO2 inhalation and the tumors were carefully excised. The tumor volume (mm^3) was measured and calculated using the formula (a × b × b)/2 (a, the largest diameter of two measurements; b, the smallest diameter of two measurements).

[2] = test system: hematologic malignancies derived cell lines; assay: Cell viability assay, panel of hematologic malignancy derived cell lines; assay type: cell-based, human; settings: 100 nM, 72 h, lymphoma, leukemia and multiple myeloma cell lines (13 cell lines for analogs)
Protocol: (§2) 5000 cells as indicated were cultured in 96-well plate with 100 μl of media. On the next day, Brusatol or associated analogs were added once to the cells without media change. After treatment, the cells were incubated with 100 μl buffer for 10 min at room temperature following the instructions of CellTiter-Glo kit (Promega, Madison, WI). Luminescence was detected using a multi-mode reader Cytation 5 (BioTek, Winooski, VT). […] Two independent experiments done in duplicates were performed.

MOLM14 xenografts = assay: In vivo tumorigenic assay using xenografts, tumor size; parameters: species or system NOD/SCID mice; settings: MOLM14 xenograft
Protocol: as §1

Raji cells = assay: Cell viability assay (CellTiter-Glo luminescence); assay type: cell-based, human; settings: Homo sapiens, analogs, 72 h, Fig. 5c, read-out: IC50
Protocol: as §2, with “On the next day, Brusatol or associated analogs were added once to the cells without media change.” left out

PBMC = assay: Cytotoxicity, cell viability assay in normal cells; assay type: cell-based, human; settings: Fig 5c
Text: Human peripheral blood mononuclear cells (PBMCs), normal T-cells and B-cells were provided by the University of Pennsylvania Human Immunology Core (HIC), and Patient-derived xenografts (PDXs) were obtained from Fox Chase Cancer Center (FCCC). These samples were from different unidentified and healthy donors with written, informed consent. All the procedures were approved by the Institutional Review Board (IRB) and conducted according to the declarations of Helsinki protocols.
as §2, with “On the next day, Brusatol or associated analogs were added once to the cells without media change.” left out

SMILES | Body weight ([1]; 0d) | Body weight ([1]; 2d) | Body weight ([1]; 4d) | Body weight ([1]; 6d) | Body weight ([1]; 8d) | Body weight ([1]; 10d) | Body weight ([1]; 12d) | inhibition of cell viability in panel of cell lines [2] | tumor size (Fig 5d&5e), individual mice (MOLM14 xenografts; 0d) | tumor size (Fig 5d&5e), individual mice (MOLM14 xenografts; 2d) | tumor size (Fig 5d&5e), individual mice (MOLM14 xenografts; 4d) | tumor size (Fig 5d&5e), individual mice (MOLM14 xenografts; 6d) | tumor size (Fig 5d&5e), individual mice (MOLM14 xenografts; 8d) | tumor size (Fig 5d&5e), individual mice (MOLM14 xenografts; 10d) | tumor size (Fig 5d&5e), individual mice (MOLM14 xenografts; 12d) | IC50 (Raji cells) [nM] | Cell viability, raw luminescence reading (PBMC; Con. 0.01 μM) | Cell viability, raw luminescence reading (PBMC; Con. 0.039 μM) | Cell viability, raw luminescence reading (PBMC; Con. 0.156 μM) | Cell viability, raw luminescence reading (PBMC; Con. 0.625 μM) | also measured
COC(=O)C12OCC34C(CC5C(C)=C(OC(=O)C(N)Cc6ccccc6)C(=O)CC5(C)C3C(O)C1O)OC(=O)C(OC(=O)C=C(C)C)C24 (stereo not drawn) [#14] | 25.66 and 26.32 and 25.88 and 25.26 and 25.69 | 26.84 and 26.83 and 25.73 | 30.22 and 27.96 | 31.1 and 27.6 | 31.54 and 29.03 and 29.06 and 28.16 and 27.82 and 27.45 | 32.14 and 29.64 and 29.88 and 28.65 and 28.04 | 33.33 and 31.09 and 31.73 and 30.06 and 30.08 | significantly inhibit | 146.154 and 92.4556 and 61.5288 and 118.617 and 111.079 and 97.6091 | 155.286 and 83.3599 and 78.5598 and 123.615 and 132.099 and 148.619 | 205.624 and 120.823 and 83.03 and 205.911 and 121.618 and 141.386 | 215.948 and 214.154 and 405.903 and 288.793 and 65.298 and 81.0923 | 654.828 and 372.84 and 268.332 and 549.466 and 314.977 and 266.348 | 1094.41 and 794.074 and 511.007 and 817.839 and 517.393 and 583.109 | 1848.1 and 1147.5 and 978.929 and 1531.82 and 970.42 and 1008.11 | 39.2 | 16702 and 18584 | 14138 and 13170 | 9796 and 9988 | 7942 and 8235 | Cell viability, raw luminescence reading (PBMC; Con. 10 μM): 10547 and 15443
COC(=O)C12OCC34C(CC5C(C)=C(OC(=O)C6CCCN6)C(=O)CC5(C)C3C(O)C1O)OC(=O)C(OC(=O)C=C(C)C)C24 (stereo not drawn) [#31] | 25.68 and 24.55 and 25.16 and 23.48 | 27.27 and 26.58 and 25.38 and 25.93 and 25.43 and 23.7 | 26.97 and 26.67 and 25.81 and 25.44 and 25.69 | 27.97 and 26.96 and 26.09 | 28.38 and 27.82 and 26.73 and 25.66 | 28.24 and 27.47 and 25.9 and 26.82 and 26.06 | 29.56 and 29.11 and 26.31 and 27.31 | significantly inhibit | 74.2529 and 62.0281 and 101.973 and 60.5009 and 91.8956 and 82.6996 | 107.191 and 120.034 and 71.2216 and 100.836 and 98.4479 and 88.2667 | 99.5578 and 195.79 and 71.7513 and 67.0262 and 52.5262 and 97.4505 | 95.2698 and 78.8527 and 143.077 and 70.9567 and 158.17 and 228.179 | 324.747 and 668.944 and 318.873 and 96.919 and 128.11 and 346.937 | 458.137 and 927.585 and 502.969 and 200.67 and 236.721 and 666.334 | 959.947 and 1557.75 and 485.372 and 249.92 and 359.5 and 1074.17 | 36.5 | 21395 and 22004 | 12976 and 10747 | 7357 and 6947 | 8946 and 8046 | Cell viability, raw luminescence reading (PBMC; Con. 10 μM): 8102 and 7279
